# Measured values taken from ChEMBL document CHEMBL5260832, “Hepatoprotective natural triterpenoids” (Eur J Med Chem, 2018).
# pEC50: −log10 of the molar value.
# Key:
# [1] = Cytotoxicity against human HepG2 cells assessed as reduction in cell viability by SRB assay; assay type: toxicity, cell-based
# Mus musculus [2] = species: Mus musculus; assay: Hepatoprotective activity against D-GaIN/LPS induced liver injury mouse model assessed as increase in sALT relative to control; assay type: functional
# Mus musculus [3] = assay: Hepatoprotective activity against D-GaIN/LPS induced liver injury mouse model assessed as reduction in sALT at 100 mg/kg, ip relative to control; assay type: functional; set-up: scale not given: the % may be the effect or the level left
# Mus musculus [4] = species: Mus musculus; assay: Hepatoprotective activity against D-GaIN/LPS induced liver injury mouse model assessed as increase in sAST relative to control; assay type: functional
# Mus musculus [5] = assay: Hepatoprotective activity against D-GaIN/LPS induced liver injury mouse model assessed as reduction in sAST at 100 mg/kg, ip relative to control; assay type: functional; set-up: scale not given: the % may be the effect or the level left
# Mus musculus [6] = assay: Hepatoprotective activity against D-GaIN/CCl4 induced liver injury mouse model assessed as reduction in GPT level at 30 microg/kg, iv relative to control; assay type: functional; set-up: scale not given: the % may be the effect or the level left; settings: dose 30 µg/kg
# HepG2 [7] = assay: Hepatoprotective activity against H2O2-induced cell death in human HepG2 cells assessed as reduction in ALT level at 20 uM preincubated for 1 hr followed by H2O2-stimulation and measured after 24 hrs; assay type: functional
# HepG2 [8] = assay: Hepatoprotective activity against H2O2-induced cell death in human HepG2 cells assessed as reduction in AST level at 20 uM preincubated for 1 hr followed by H2O2-stimulation and measured after 24 hrs; assay type: functional
# Mus musculus [9] = species: Mus musculus; assay: Hepatoprotective activity in mouse liver homogenate assessed as inhibition of iron/ascorbate lipid peroxidation at 5.0 mg/mL relative to control; assay type: functional; set-up: scale not given: the % may be the effect or the level left
# Mus musculus [10] = species: Mus musculus; assay: Hepatoprotective activity in mouse liver homogenate assessed as inhibition of iron/ascorbate lipid peroxidation at 0.1 mg/mL relative to control; assay type: functional; set-up: scale not given: the % may be the effect or the level left
# HepG2 [11] = assay: Hepatoprotective activity against H2O2-induced human HepG2 cells assessed as increase in ALT level; assay type: functional
# HepG2 [12] = assay: Hepatoprotective activity against H2O2-induced human HepG2 cells assessed as increase in AST level; assay type: functional
# Hepatocyte [13] = assay: Hepatoprotective activity against H2O2-induced cell damage in rat hepatocyte assessed as reduction in cell growth; assay type: functional, cell-based
# L02 = assay: Hepatoprotective activity against D-GaIN-induced in human HL7702 cells assessed as cell damage at 10 uM relative to control; assay type: functional
# Hepatocyte [14] = assay: Hepatoprotective activity against D-GaIN/TNFalpha-induced cell death in mouse hepatocyte at 50 uM relative to control; assay type: functional
# Hepatocyte [15] = assay: Hepatoprotective activity against D-GaIN/TNFalpha-induced cell death in mouse hepatocyte at 200 uM relative to control; assay type: functional
# Hepatocyte [16] = assay: Hepatoprotective activity against D-GaIN/TNFalpha-induced cell death in mouse hepatocyte at 100 uM relative to control; assay type: functional, cell-based; settings: dose 100 µM
# Hepatocyte [17] = assay: Hepatoprotective activity against D-GaIN/TNFalpha-induced cell death in mouse hepatocyte at 25 uM relative to control; assay type: functional
smiles,measurement,setting,value
CC1=C[C@@]2(C[C@H]([C@H]3CC[C@@]4(C)[C@@H]5CC[C@H]6C(C)(C)[C@@H](O)C=C[C@@]67C[C@@]57CC[C@]34C)[C@@H](O)O2)OC1=O,pEC50,[1],3.91
CC(C)=CCC[C@](C)(O)C1CC[C@]2(C)[C@@H]1[C@H](O[C@H]1O[C@@H](CO[C@H]3OC[C@H](O)[C@@H](O)[C@@H]3O)[C@H](O)[C@@H](O)[C@@H]1O)C[C@@H]1[C@@]3(C)CC[C@H](O[C@@H]4O[C@H](CO)[C@@H](O)[C@H](O)[C@H]4O[C@@H]4O[C@H](CO)[C@@H](O)[C@H](O)[C@H]4O)C[C@@H]3CC[C@]12C (some centres undefined),Activity,Mus musculus [2],33%
same,Activity,Mus musculus [3],33%
same,Activity,Mus musculus [4],40%
same,Activity,Mus musculus [5],40%
CC(C)=CCC[C@](C)(O[C@@H]1O[C@H](CO)[C@@H](O)[C@H](O)[C@H]1O)[C@H]1CC[C@]2(C)[C@@H]1[C@H](O)C[C@@H]1[C@@]3(C)CC[C@H](O)C(C)(C)[C@@H]3[C@@H](O[C@@H]3O[C@H](CO)[C@@H](O)[C@H](O)[C@H]3O)C[C@]12C [GINSENOSIDE RG1],Activity,Mus musculus [2],30%
same,Activity,Mus musculus [4],12%
CC(C)=CCC[C@](C)(O)[C@H]1CC[C@]2(C)[C@@H]1[C@H](O)C[C@@H]1[C@@]3(C)CC[C@H](O)C(C)(C)[C@@H]3[C@@H](O[C@@H]3O[C@H](CO)[C@@H](O)[C@H](O)[C@H]3O)C[C@]12C [GINSENOSIDE RH1],Activity,Mus musculus [2],93%
same,Activity,Mus musculus [6],72%
same,Activity,Mus musculus [4],90%
C=C(C)[C@@H]1C[C@H](O)C2=C(C(=O)C[C@]3(C)[C@@H]([C@H](C)CCC(=O)OC)CC[C@@]23C)[C@@]1(C)CCC(=O)OC,Activity,HepG2 [7],16.06 U/L
same,Activity,HepG2 [8],19.09 U/L
CC1(C)CC[C@]2(C(=O)O)CC[C@]3(C)C(=CC[C@@H]4[C@@]5(C)C[C@@H](O)[C@@H](O)C(C)(C)[C@@H]5CC[C@]43C)[C@@H]2C1,Activity,Mus musculus [9],52.7%
same,Activity,Mus musculus [10],16.8%
C/C(=C\CC[C@@H](C)[C@H]1CC[C@@]2(C)C3=CC[C@H]4C(C)(C)[C@@H](O)CC[C@]4(C)C3=CC[C@]12C)CO [GANODEROL B],Activity,HepG2 [11],18.97 U/L
same,Activity,HepG2 [12],26.42 U/L
CC1=C[C@]2(C=C([C@H]3CC[C@@]4(C)[C@@H]5CC[C@H]6C(C)(C)C(=O)C=C[C@]67C[C@]57CC[C@]34C)C(=O)N2)OC1=O,pEC50,Hepatocyte [13],3.78
CC(C)=CCC[C@](C)(O)C1CC[C@]2(C)[C@@H]1[C@H](O[C@H]1O[C@@H](CO[C@@H]3O[C@@H](CO)[C@H](O)[C@H]3O)[C@H](O)[C@@H](O)[C@@H]1O)C[C@@H]1[C@@]3(C)CC[C@H](O[C@@H]4O[C@H](CO)[C@@H](O)[C@H](O)[C@H]4O[C@@H]4O[C@H](CO)[C@@H](O)[C@H](O)[C@H]4O)C[C@@H]3CC[C@]12C (some centres undefined),Activity,Mus musculus [2],89%
same,Activity,Mus musculus [3],33%
same,Activity,Mus musculus [4],87%
same,Activity,Mus musculus [5],40%
C=C(C)[C@@H]1C[C@H](O)C2=C(C(=O)C[C@]3(C)[C@@H]([C@H](C)CCC(=O)O)CC[C@@]23C)[C@@]1(C)CCC(=O)OC,Activity,HepG2 [7],16.06 U/L
same,Activity,HepG2 [8],19.09 U/L
CC(C)=CCC[C@H](C(=O)O)[C@@H]1CC[C@]2(C)C3=C(CC[C@@]12C)[C@@]1(C)CC[C@@H](O)C(C)(C)[C@@H]1CC3,Activity,L02,30.1%
CC1(C)CC[C@]2(C(=O)O)CC[C@]3(C)[C@H](C=C[C@@H]4[C@@]5(C)C[C@@H](O)[C@H](O)[C@@](C)(CO)[C@@H]5CC[C@]43C)[C@H]2[C@@H]1O,Activity,Hepatocyte [14],8%
same,Activity,Hepatocyte [15],8%
same,Activity,Hepatocyte [16],8%
CC1(C)CC[C@]2(C(=O)O)CC[C@]3(C)[C@H](C=C[C@@H]4[C@@]5(C)C[C@@H](O)[C@H](O)C(C)(C)[C@@H]5CC[C@]43C)[C@H]2[C@@H]1O,Activity,Hepatocyte [17],15.4%
same,Activity,Hepatocyte [16],32.9%
C=C(C)[C@@H]1CC[C@]2(C(=O)O)CC[C@]3(C)[C@H](CC[C@@H]4[C@@]5(C)C[C@@H](O)[C@H](O)C(C)(C)[C@@H]5CC[C@]43C)[C@@H]12,Activity,Mus musculus [10],13.7%
CC1(C)CC[C@]2(C(=O)O)CC[C@]3(C)[C@H](C=C[C@@H]4[C@@]5(C)C[C@@H](O)[C@H](O)[C@](C)(CO)[C@@H]5CC[C@]43C)[C@H]2C1,Activity,Hepatocyte [17],15.4%
same,Activity,Hepatocyte [16],108.4%
CC1(C)CC[C@]2(C(=O)O)CC[C@]3(C)[C@H](C=C[C@@H]4[C@@]5(C)C[C@@H](O)[C@H](O)C(C)(C)[C@@H]5[C@H](O)C[C@]43C)[C@H]2[C@@H]1O,Activity,Hepatocyte [17],15.4%
same,Activity,Hepatocyte [16],24.4%
